Test results from patent US20250206759A1, “FUSED RING COMPOUND, PHARMACEUTICAL COMPOSITION CONTAINING SAME, AND USE OF FUSED RING COMPOUND” (CHENGDU HYPERWAY PHARMACEUTICALS CO., LTD., priority 2022, published 2025).
Like-named read-outs stand apart in the source and are kept apart here.

Tests used:
[1] = test system: KRas G12D-mediated ERK phosphorylation; test: Inhibition of KRas G12D-mediated ERK phosphorylation in AGS cells; format: cell-based; details: read-out: AGS-pERK IC50
Procedure: Day 1: AGS cells were seeded into 384-well cell culture plates and cultured overnight in a 37° C., 5% CO2 incubator.
Day 2: The compounds were added to the plates using Echo550 and incubated for 3 h in a 37° C., 5% CO2 incubator. Then cells were fixed with paraformaldehyde, permeated with methanol, and blocked with the blocking solution. Finally, a mixed solution of primary antibodies (rabbit anti pERK, mouse anti GAPDH) was added, and the mixture was incubated at 4° C. overnight.
Day 3: The mixed solution of primary antibodies was discarded, and a mixed solution of secondary antibodies (goat anti rabbit 800CW, goat anti mouse 680RD) was added. The mixture was incubated at room temperature in the dark. Finally, the cell culture plate was washed with PBST, and then inverted for 1 minute of centrifugation. The fluorescence signal values were read with Odyssey CLx.
ERK phosphorylation was calculated according to the following formula: […]
X: log value of compound concentration.
Y: average value of relative expression of p-ERK between replicate wells.

[2] = Pharmacokinetics of compounds in rats (oral); format: in vivo, SD rats; details: male SD rats
Procedure: Male SD rats were purchased from Shanghai SIPPR-Bk Lab Animal Co., Ltd. Each test compound was administered orally (3 rats per group) once to SD rats for pharmacokinetic study. The test compounds were prepared on the day of administration. The test compounds were suspended in 5% DMSO+95% saline, and then vortexed for 2 min and ultrasonicated for 5 min to prepare the administration system. The animals were fasted for 10-14 h before oral administration, and the feeding was resumed 4 h after administration. After oral administration by gavage, pharmacokinetic samples were collected from SD rats through the jugular vein. The collection time points were: before administration, 15 min, 30 min, 1 h, 2 h, 4 h, 6 h, 8 h and 24 h after administration. Three whole blood samples were collected at each time point, with a collection volume of about 0.2 mL, and anticoagulated with sodium heparin. After blood samples were collected, they were immediately placed on ice and centrifuged to separate plasma within 1 hour (centrifugation conditions: 6800 rpm, 6 min, 2-8° C.). The collected plasma was stored in a −80° C. refrigerator before analysis.

GP2d cells = test: 3D cell proliferation inhibition test (CellTiter-Glo), GP2d cells; format: cell-based; details: 7 days, read-out: GP2d cells 3D CTG IC50
Procedure: (§1) The diluted compounds to be tested were added to 384-well low-adhesion cell culture plates by using a nanoliter pipetting system (LABCYTE, P-0200). Then, the cells were plated and incubated in a 37° C., […] incubator for 7 days. Afterward, CellTiter-Glo® […] reagent was added, and the luminescent values were read by an Envision multifunctional microplate reader (the luminescent signal is proportional to the amount of ATP in the system, and the ATP content directly represents the number of viable cells in the system). Finally, the IC50 values (half-maximal inhibitory concentration) of the compounds were obtained by the XLFIT software using the nonlinear fitting formula.
(§2) a) The diluted compounds to be tested were added to 384-well low-adsorption cell culture plates by using a nanoliter pipetting system.
(§3) b) Cells were seeded into the 384-well plates in a) and then centrifuged at 1000 rpm for 1 min at room temperature, with a final DMSO concentration of compound being 0.5%. The plates were then incubated in a 37° C., 5% CO2 constant temperature incubator for 7 days.
(§4) c) CellTiter-Glo® 3D was added to the 384-well cell culture plates in b), shaken in the dark, and incubated at room temperature.
(§5) d) The luminescence values were read by using an Envision multifunctional microplate reader.
(§6) The IC50 (half-maximal inhibitory concentration) values of the compounds were obtained by using XLFIT software according to the following nonlinear fitting formula:
(§7) [formula] • X: log value of compound concentration. • Y: inhibition rate (%)
(§8) Inhibition rate (%)=100×(average value of negative control−compound)/(average value of negative control−average value of positive control)
(§9) Positive control: Medium only.

ASPC-1 cells = test: 3D cell proliferation inhibition test (CellTiter-Glo), ASPC-1 cells; format: cell-based; details: 7 days, read-out: ASPC-1 cells 3D CTG IC50
Procedure: as §1, §2, §3, §4, §5, §6, §7, §8, §9

[3] = male, SD, rat, plasma, po, 100 mg/kg, 100 mg/kg, read-out: AUC
[4] = male, SD, rat, plasma, po, 100 mg/kg, 100 mg/kg, read-out: Cmax

Row | IC50 [1] | Compound | IC50 ([1]; Homo sapiens, AGS) | AUC [2, 3] | Cmax [2, 4] | other results
1 | – | Oc1cc(-c2ncc3c(N4CC5CCC(C4)N5)nc(OCC45CCCN4[C@@H](c4ccc(Cl)c(Cl)c4)CC5)nc3c2F)c2c(F)c(F)ccc2c1 (mixture of isomers) [Example 220] | 3.2 nM | 140 ng·h/mL | 38 ng/mL | –
2 | – | CC1(C)OC(C)(C)c2cc([C@H]3CCC4(COc5nc(N6CC7CCC(C6)N7)c6cnc(-c7cc(O)cc8ccc(F)c(F)c78)c(F)c6n5)CCCN34)ccc21 (single isomer, unassigned) [Example 198] | 0.72 nM | 219 ng·h/mL | 141 ng/mL | –
3 | – | Nc1cc(Cl)c(C(F)(F)F)c(-c2ncc3c(N4C[C@H]5CC[C@@H](C4)N5)nc(OCC45CCCN4C(c4ccc6c(c4)OC(F)(F)O6)CC5)nc3c2F)c1 (stereo partly drawn) [Example 161, 3-(4-((1R,5S)-3,8-diazabicyclo[3.2.1]octan-3-yl)-2-((3-(2,2-difluorobenzo[d][1,3]dioxy-5-yl)tetrahydro-1H-pyrrolizin-7a(5H)-yl)methoxy)-8-fluoropyridin[4,3-d]pyrimidin-7-yl)-5-chloro-4-(trifluoromethyl) aniline] | – | – | – | AUC ([2]; 100 mg/kg): 1080 ng·h/mL; Cmax ([2]; 100 mg/kg): 193 ng/mL; IC50 (GP2d cells): 10.9 nM; IC50 (ASPC-1 cells): 46.9 nM
4 | 27 nM | 4-(4-((1R,5S)-3,8-diazabicyclo[3.2.1]octan-3-yl)-8-fluoro-2-((3-(4-methoxyphenyl)tetrahydro-1H-pyrrolidin-7a(5H)-yl)methoxy)pyrido[4,3-d]pyrimidin-7-yl)-5,6-difluoronaphthalen-2-ol [Example 34] | – | – | – | AUC ([2]; 10 mg/kg): 75 ng·h/mL; Cmax ([2]; 10 mg/kg): 25 ng/mL
5 | – | Oc1cc(-c2ncc3c(N4CC5CCC(C4)N5)nc(OCC45CCCN4[C@@H](c4cc(F)c(F)c(F)c4)CC5)nc3c2F)c2c(F)c(F)ccc2c1 (mixture of isomers) [Example 222] | 1.1 nM | 258 ng·h/mL | – | Cmax ([2]; 100 mg/kg): 82 ng/mL
6 | 23 nM | CC1(C)OC(C)(C)c2cc(C3CCC4(COc5nc(N6C[C@H]7CC[C@@H](C6)N7)c6cnc(-c7cc(O)cc8ccccc78)c(F)c6n5)CCCN34)ccc21 (stereo partly drawn) [Example 149, 4-(4-((1R,5S)-3,8-diazabicyclo[3.2.1]octan-3-yl)-8-fluoro-2-((3-(1,1,3,3-tetramethyl-1,3-dihydroisobenzofuran-5-yl)tetrahydro-1H-pyrrolizin-7a(5H)-yl)methoxy)pyrido[4,3d]pyrimidin-7-yl)naphthalen-2-ol] | – | – | – | AUC ([2]; 100 mg/kg): 1192 ng·h/mL; Cmax ([2]; 100 mg/kg): 148 ng/mL
7 | 5.2 nM | Oc1cc(-c2ncc3c(N4C[C@H]5CC[C@@H](C4)N5)nc(OCC45CCCN4C(c4ccc6c(c4)C4CCC6O4)CC5)nc3c2F)c2c(F)c(F)ccc2c1 (stereo partly drawn) [Example 153, 4-(4-((1R,5S)-3,8-diazabicyclo[3.2.1]octan-3-yl)-8-fluoro-2-((3-(1,2,3,4-tetrahydro-1,4-epoxynaphthalen-6-yl)tetrahydro-1H-pyrrolizin-7a(5H)-yl)methoxy)pyrido[4,3d]pyrimidin-7-yl)-5,6-difluoronaphthalen-2-ol] | – | – | – | AUC ([2]; 100 mg/kg): 458 ng·h/mL; Cmax ([2]; 100 mg/kg): 156 ng/mL
8 | – | Oc1cc(-c2ncc3c(N4CC5CCC(C4)N5)nc(OCC45CCCN4C(c4ccc6c(c4)COCC6)CC5)nc3c2F)c2c(F)c(F)ccc2c1 (stereo not shown) [Example 187] | 13 nM | 567 ng·h/mL | 109 ng/mL | –
9 | – | CC1(C)OCc2cc(C3CCC4(COc5nc(N6C[C@H]7CC[C@@H](C6)N7)c6cnc(-c7cc(O)cc8ccc(F)c(F)c78)c(F)c6n5)CCCN34)ccc21 (stereo partly drawn) [Example 146, 4-(4-((1R,5S)-3,8-diazabicyclo[3.2.1]octan-3-yl)-2-((3-(1,1-dimethyl-1,3-dihydroisobenzofuran-5-yl)tetrahydro-1H-pyrrolizin-7a(5H)-yl)methoxy)-8-fluoropyrido[4,3-d]pyrimidin-7-yl)-5,6-difluoronaphthalen-2-ol] | 11 nM | 483 ng·h/mL | 143 ng/mL | –
10 | – | C#Cc1c(F)ccc2cc(O)cc(-c3ncc4c(N5CC6CCC(C5)N6)nc(OCC56CCCN5C(c5ccc(F)cc5)CC6)nc4c3F)c12 (stereo not shown) [Example 188] | 5.2 nM | 862 ng·h/mL | 149 ng/mL | –
11 | 41 nM | Oc1cc(-c2ncc3c(N4C[C@H]5CC[C@@H](C4)N5)nc(OCC45CCCN4C(c4ccc6c(c4)COC6)CC5)nc3c2F)c2ccccc2c1 (stereo partly drawn) [Example 43, 4-(4-((1R,5S)-3,8-diazabicyclo[3.2.1]octan-3-yl)-2-((3-(1,3-dihydroisobenzofuran-5-yl)tetrahydro-1H-pyrrolidin-7a(5H)-yl)methoxy)-8-fluoropyrido[4,3-d]pyrimidin-7-yl)naphthalen-2-ol] | – | – | – | AUC ([2]; 100 mg/kg): 537 ng·h/mL; Cmax ([2]; 100 mg/kg): 164 ng/mL
12 | – | CC1(C)OCc2ccc(C3CCC4(COc5nc(N6CC7CCC(C6)N7)c6cnc(-c7cc(O)cc8ccc(F)c(F)c78)c(F)c6n5)CCCN34)cc21 [Example 156, 4-(4-((1R,5S)-3,8-diazabicyclo[3.2.1]octan-3-yl)-2-((3-(3,3-dimethyl-1,3-dihydroisobenzofuran-5-yl)tetrahydro-1H-pyrrolizin-7a(5H)-yl)methoxy)-8-fluoropyridin[4,3-d]pyrimidin-7-yl)-5,6-difluoronaphthalen-2-ol] | 15 nM | 598 ng·h/mL | 138 ng/mL | –
13 | – | Oc1cc(-c2ncc3c(N4CC5CCC(C4)N5)nc(OCC45CCCN4[C@@H](c4ccc(F)cc4)CC5)nc3c2F)c2c(F)c(F)ccc2c1 (single isomer, unassigned) [Example 193] | 9.1 nM | – | – | –
14 | – | C#Cc1c(F)ccc2cc(O)cc(-c3ncc4c(N5CC6CCC(C5)N6)nc(OCC56CCCN5[C@@H](c5ccc(C(F)(F)F)cc5)CC6)nc4c3F)c12 (single isomer, unassigned) [Example 204] | 0.78 nM | – | – | –
15 | – | Cc1ccc([C@H]2CCC3(COc4nc(N5CC6CCC(C5)N6)c5cnc(-c6cc(O)cc7ccc(F)c(F)c67)c(F)c5n4)CCCN23)cc1 (mixture of isomers) [Example 213] | 1.8 nM | – | – | –
16 | – | Oc1cc(-c2ncc3c(N4CC5CCC(C4)N5)nc(OCC45CCCN4C(c4ccc(Cl)c(C(F)(F)F)c4)CC5)nc3c2F)c2c(F)c(F)ccc2c1 (stereo not shown) [Example 227] | 2.4 nM | 245 ng·h/mL | 52 ng/mL | –
17 | – | C#Cc1c(F)ccc2cc(O)cc(-c3ncc4c(N5CC6CCC(C5)N6)nc(OCC56CCCN5[C@@H](c5ccc(OC(F)(F)F)cc5)CC6)nc4c3F)c12 (mixture of isomers) [Example 214] | 1 nM | – | – | –
18 | – | Oc1cc(-c2ncc3c(N4CC5CCC(C4)N5)nc(OCC45CCCN4C(c4cccc(F)c4)CC5)nc3c2F)c2c(F)c(F)ccc2c1 (stereo not shown) [Example 110] | 35 nM | – | – | –

Row | Compound | IC50 [1] | IC50 ([1]; Homo sapiens, AGS) | AUC [2, 3] | Cmax [2, 4] | other results
19 | CC1(C)OC(C)(C)c2cc([C@H]3CCC4(COc5nc(N6CC7CCC(C6)N7)c6cnc(-c7cc(O)cc8ccc(F)c(F)c78)c(F)c6n5)CCCN34)ccc21 (mixture of isomers) [Example 211] | 0.96 nM | – | – | – | AUC ([2]; 100 mg/kg): 225 ng·h/mL; Cmax ([2]; 100 mg/kg): 97 ng/mL
20 | Oc1cc(-c2ncc3c(N4CC5CCC(C4)N5)nc(OCC45CCCN4C(c4ccc(F)cc4)CC5)nc3c2F)c2c(F)c(F)ccc2c1 (stereo not shown) [Example 108] | 14 nM | – | 2090 ng·h/mL | 157 ng/mL | –
21 | Oc1cc(-c2ncc3c(N4CC5CCC(C4)N5)nc(OCC45CCCN4C(c4ccc(F)cc4)CC5)nc3c2F)c2c(F)c(F)ccc2c1 (stereo not shown) [Example 194] | 1.1 nM | – | – | – | –
